Calls of active or inactive are those of the source. The rule behind the calls is not given here.
Legend:
[1] = Cmax in Sprague-Dawley rat at 20 mg/kg,po administration measured upto 24 hrs by LC-MS/MS analysis; assay type: ADME, organism-based; details: in vivo
Mus musculus [2] = assay: Antiinflammatory activity in cecal ligation and puncture induced sepsis C57BL/6 mouse model assessed as reduction in tissue destruction of lung at 20 mg/kg,po administrated with compound for 6 hrs followed by CLP induction and measured after 12 hrs by H and E staining based analysis; assay type: functional, organism-based; details: time 18.0 hrs
[3] = Cmax in Sprague-Dawley rat at 1 mg/kg,iv administration measured upto 24 hrs by LC-MS/MS analysis; assay type: ADME, organism-based; details: in vivo
[4] = Stability of compound in simulated gastric fluid measured upto 12 hrs; assay type: physicochemical; details: simulated gi fluid
[5] = biological target: T1, Myeloid differentiation primary response protein MyD88 (Homo sapiens, UniProt Q99836); assay: Inhibition of FLAG tagged and HA tagged MYD88 (unknown origin) expressed in LPS induced HEK293T cells at 20 uM incubated for 1 hr by coimmunoprecipitation analysis; assay type: cell-based
T1 sequence (Q99836 whole entry): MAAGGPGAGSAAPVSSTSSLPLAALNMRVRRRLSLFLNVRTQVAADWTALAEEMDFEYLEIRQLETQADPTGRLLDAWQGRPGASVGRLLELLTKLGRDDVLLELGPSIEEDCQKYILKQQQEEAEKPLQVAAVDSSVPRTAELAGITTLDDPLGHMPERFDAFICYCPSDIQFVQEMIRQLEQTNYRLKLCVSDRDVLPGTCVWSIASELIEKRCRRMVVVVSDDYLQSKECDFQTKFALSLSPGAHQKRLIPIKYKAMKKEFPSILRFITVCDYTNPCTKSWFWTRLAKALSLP

Mus musculus [6] = assay: Antiinflammatory activity in cecal ligation and puncture induced sepsis C57BL/6 mouse model assessed as reduction in pulmonary congestion in lung at 20 mg/kg,po administrated with compound for 6 hrs followed by CLP induction and measured after 12 hrs by H and E staining based analysis; assay type: functional, organism-based; details: time 18.0 hrs
Mus musculus [7] = assay: Antiinflammatory activity against LPS induced acute lung injury C57BL/6 mouse model assessed as reduction in total cell count in BALF at 20 mg/kg,po administrated with compound for 30 mins followed by LPS treatment and measured after 6 hrs; assay type: functional, organism-based; details: time 6.5 hrs
[8] = Stability of compound in enzyme free simulated intestinal fluid measured upto 12 hrs; assay type: physicochemical; details: simulated gi fluid
[9] = biological target: T1, Myeloid differentiation primary response protein MyD88; assay: Binding affinity to CM5 sensor chip immobilized human MyD88 DD domain assessed as dissociation constant by SPR analysis
J774.A1 [10] = assay: Anti-inflammatory activity in LPS-induced mouse J774.A1 cells assessed as inhibition of TNF-alpha production by ELISA; assay type: functional, cell-based
[11] = AUC (0 to infinity) in Sprague-Dawley rat at 20 mg/kg,po administration measured upto 24 hrs by LC-MS/MS analysis; assay type: ADME, organism-based; details: in vivo
[12] = Acute toxicity in C57BL/6 mouse assessed as pathological change in heart at 500 mg/kg,po administration measured upto 11 days by hematoxylin and eosin staining based assay; assay type: organism-based; details: in vivo, 264 h, time < 11 day
[13] = Acute toxicity in C57BL/6 mouse assessed as weight loss at 500 mg/kg,po administration measured after 3 days; assay type: organism-based; details: in vivo, 72 h, time 3 day
[14] = Oral bioavailability in Sprague-Dawley rat at 20 mg/kg administration measured upto 24 hrs by LC-MS/MS analysis; assay type: ADME, organism-based; details: in vivo
Mus musculus [15] = assay: Antiinflammatory activity against LPS induced acute lung injury C57BL/6 mouse model assessed as reduction in IL-6 level in serum at 20 mg/kg,po administrated with compound for 30 mins followed by LPS treatment and measured after 6 hrs by ELISA; assay type: functional, organism-based; details: time 6.5 hrs
Mus musculus [16] = assay: Antiinflammatory activity against LPS induced acute lung injury C57BL/6 mouse model assessed as reduction in total protein concentration in BALF at 20 mg/kg,po administrated with compound for 30 mins followed by LPS treatment and measured after 6 hrs; assay type: functional, organism-based; details: time 6.5 hrs
J774.A1 [17] = assay: Inhibition of NF-kappaB signalling pathway in LPS-induced mouse J774.A1 cells assessed as upregulation of IkappaB-alpha expression by Western blotting analysis; assay type: cell-based
J774.A1 [18] = assay: Anti-inflammatory activity in LPS-induced mouse J774.A1 cells assessed as inhibition of IL-6 production by ELISA; assay type: functional, cell-based
Mus musculus [19] = assay: Antiinflammatory activity in cecal ligation and puncture induced sepsis C57BL/6 mouse model assessed as reduction in interstitial edema in lung at 20 mg/kg,po administrated with compound for 6 hrs followed by CLP induction and measured after 12 hrs by H and E staining based analysis; assay type: functional, organism-based; details: time 18.0 hrs
[20] = biological target: T1, Myeloid differentiation primary response protein MyD88; assay: Binding affinity to CM5 sensor chip immobilized human MyD88 TIR domain assessed as dissociation constant by SPR analysis
[21] = Acute toxicity in C57BL/6 mouse assessed as pathological change in kidney at 500 mg/kg,po administration measured upto 11 days by hematoxylin and eosin staining based assay; assay type: organism-based; details: in vivo, 264 h, time < 11 day
[22] = Stability of compound in enzyme free simulated gastric fluid measured upto 12 hrs; assay type: physicochemical; details: simulated gi fluid
Mus musculus [23] = assay: Antiinflammatory activity in cecal ligation and puncture induced sepsis C57BL/6 mouse model assessed as reduction in neutrophil infiltration in lung at 20 mg/kg,po administrated with compound for 6 hrs followed by CLP induction and measured after 12 hrs by immunohistochemical staining based analysis; assay type: functional, organism-based; details: time 18.0 hrs
Mus musculus [24] = assay: Antiinflammatory activity in cecal ligation and puncture induced sepsis C57BL/6 mouse model assessed as reduction in TNF-alpha level in BALF at 20 mg/kg,po administrated with compound for 6 hrs followed by CLP induction and measured after 12 hrs by ELISA; assay type: functional, organism-based; details: time 18.0 hrs
J774.A1 [25] = assay: Cytotoxicity against mouse J774.A1 cells at 3 to 12 uM by MTT assay; assay type: toxicity, cell-based; details: j774.a1, 12 µM, dose 3-12 µM
[26] = Acute toxicity in C57BL/6 mouse assessed as pathological change in liver at 500 mg/kg,po administration measured upto 11 days by hematoxylin and eosin staining based assay; assay type: organism-based; details: in vivo, 264 h, time < 11 day
Mus musculus [27] = assay: Antiinflammatory activity against LPS induced acute lung injury C57BL/6 mouse model assessed as reduction in spleen weight at 20 mg/kg,po administrated with compound for 30 mins followed by LPS treatment and measured after 6 hrs; assay type: functional, organism-based; details: time 6.5 hrs
Mus musculus [28] = assay: Antiinflammatory activity against LPS induced acute lung injury C57BL/6 mouse model assessed as reduction in TNF-alpha level in serum at 20 mg/kg,po administrated with compound for 30 mins followed by LPS treatment and measured after 6 hrs by ELISA; assay type: functional, organism-based; details: time 6.5 hrs
Mus musculus [29] = assay: Antiinflammatory activity against LPS induced acute lung injury C57BL/6 mouse model assessed as reduction in pulmonary edema by measuring reduction of lung wet to dry ratio at 20 mg/kg,po administrated measured after 48 hrs; assay type: functional, organism-based
[30] = Stability of compound in simulated intestinal fluid measured upto 12 hrs; assay type: physicochemical; details: simulated gi fluid
[31] = Tmax in Sprague-Dawley rat at 20 mg/kg,po administration measured upto 24 hrs by LC-MS/MS analysis; assay type: ADME, organism-based; details: in vivo
[32] = Drug concentration in Sprague-Dawley rat serum at 1 mg/kg,iv administration measured upto 24 hrs by LC-MS/MS analysis; assay type: ADME, organism-based; details: read-out: Ct
J774.A1 [33] = assay: Inhibition of MAPK signalling pathway in LPS stimulated mouse J774.A1 cells assessed as downregulation of p38 phosphorylation by Western blotting analysis; assay type: cell-based
Peritoneal macrophage = assay: Antiinflammatory activity in LPS-induced mouse Peritoneal macrophage cells assessed as inhibition of IFN-beta mRNA level at 1.25 to 5 uM by RT-PCR analysis; assay type: functional, cell-based; details: dose 1.25-5 µM
Mus musculus [34] = assay: Antiinflammatory activity against LPS induced acute lung injury C57BL/6 mouse model assessed as reduction in histopathological change in lung at 20 mg/kg,po administrated with compound for 30 mins followed by LPS treatment and measured after 6 hrs by H and E staining based analysis; assay type: functional, organism-based; details: time 6.5 hrs
Mus musculus [35] = assay: Antiinflammatory activity in cecal ligation and puncture induced sepsis C57BL/6 mouse model assessed as reduction in TNF-alpha mRNA level in lung at 20 mg/kg,po administrated with compound for 6 hrs followed by CLP induction and measured after 12 hrs by RT-PCR analysis; assay type: functional, organism-based; details: time 18.0 hrs

For O[C@H](COc1ccc(Br)cc1)CN1CCN(Cc2cc3ccccc3[nH]2)CC1, the Cmax [1] was 320 ng/mL, the Activity (Mus musculus [2]) was “Active” and the Cmax [3] was 1080 ng/mL. For the same compound, the Stability [4] was “Stable”, the inhibition [5] was “Active” and the Activity (Mus musculus [6]) was “Active”. The Activity (Mus musculus [7]) was “Active”, the Stability [8] was “Stable” and the Activity [9] was “inactive”. The IC50 (J774.A1 [10]) was 3.28 µM, the AUC(0-inf) [11] was 3200 ng·h/mL and the Activity [12] was “Non-toxic”. The Activity [13] was “Toxic”, the bioavailability [14] was 20.7% and the Activity (Mus musculus [15]) was “Active”. The Activity (Mus musculus [16]) was “Active”, the inhibition (J774.A1 [17]) was “Active” and the IC50 (J774.A1 [18]) was 0.24 µM. The Activity (Mus musculus [19]) was “Active”, the Kd [20] was 15 µM and the Activity [21] was “Non-toxic”. For the same compound, the Stability [22] was “Stable”, the Activity (Mus musculus [23]) was “Active” and the Activity (Mus musculus [24]) was “Active”. The Activity (J774.A1 [25]) was “Non-toxic”, the Activity [26] was “Non-toxic” and the Activity (Mus musculus [27]) was “Active”. The Activity (Mus musculus [28]) was “Active”, the Activity (Mus musculus [29]) was “Active” and the Stability [30] was “Stable”. For the same compound, the Tmax [31] was 3.67 h, the concentration at 24 h [32] was 1080 ng/mL and the inhibition (J774.A1 [33]) was “Active”. For the same compound, the Activity (Peritoneal macrophage) was “inactive”, the Activity (Mus musculus [34]) was “Active” and the Activity (Mus musculus [35]) was “Active”.
